Results taken from ChEMBL document CHEMBL1201862, “PubChem BioAssay data set” (2004).
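Following 48 hours of exposure in 96-well plates, responses at five concentrations were used to interpolate endpoints linearly. GI50 = concentration required for 50% inhibition of growth.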 Activity calls are given as the source filed them. Rule as the data show it: active = GI50 up to about 1.1 µM and inactive = higher.

Columns and labels:
Experiment in all cases: DTP human tumour cell line panel, 48 h
786-0 = system: 786-0
A549 = system: A549
ACHN = system: ACHN
BT-549 = system: BT-549
CAKI-1 = system: CAKI-1
CCRF-CEM = system: CCRF-CEM
COLO 205 = system: COLO 205
DU-145 = system: DU-145
EKVX = system: EKVX
HCC 2998 = system: HCC 2998
HCT-116 = system: HCT-116
HCT-15 = system: HCT-15
HOP-62 = system: HOP-62
HT-29 = system: HT-29
IGROV-1 = system: IGROV-1
K562 = system: K562
KM12 = system: KM12
LOX IMVI = system: LOX IMVI
M14 = system: M14
MCF7 = system: MCF7
MDA-MB-231 = system: MDA-MB-231
MDA-MB-435 = system: MDA-MB-435
MDA-N = system: MDA-N
MOLT-4 = system: MOLT-4
NCI-H23 = system: NCI-H23
NCI-H460 = system: NCI-H460
NCI-H522 = system: NCI-H522
NCI/ADR-RES = system: NCI/ADR-RES
OVCAR-3 = system: OVCAR-3
OVCAR-4 = system: OVCAR-4
OVCAR-5 = system: OVCAR-5
OVCAR-8 = system: OVCAR-8
PC-3 = system: PC-3
RPMI-8226 = system: RPMI-8226
RXF 393 = system: RXF 393
SF-268 = system: SF-268
SF-295 = system: SF-295
SF-539 = system: SF-539
SK-MEL-28 = system: SK-MEL-28
SK-MEL-2 = system: SK-MEL-2
SK-MEL-5 = system: SK-MEL-5
SK-OV-3 = system: SK-OV-3
SN12C = system: SN12C
SNB-19 = system: SNB-19
SNB-75 = system: SNB-75
SR = system: SR
SW-620 = system: SW-620
T47D = system: T47D
TK-10 = system: TK-10
U-251 = system: U-251
UACC-257 = system: UACC-257
UACC-62 = system: UACC-62
UO-31 = system: UO-31
NCI-H226 = system: NCI-H226
A498 = system: A498
HL-60 = system: HL-60
HOP-92 = system: HOP-92
Malme-3M = system: Malme-3M

With `COc1ccc(N[C@H](CSc2ccc(C)cc2)c2ccc(F)cc2)cc1` the GI50 (786-0) was > 100 µM (inactive), the GI50 (A549) was 74.6 µM (inactive) and the GI50 (ACHN) was > 100 µM (inactive). For the same compound, the GI50 (BT-549) was > 100 µM (inactive), the GI50 (CAKI-1) was > 100 µM (inactive) and the GI50 (CCRF-CEM) was > 100 µM (inactive). For the same compound, the GI50 (COLO 205) was > 100 µM (inactive), the GI50 (DU-145) was > 100 µM (inactive) and the GI50 (EKVX) was > 100 µM (inactive). The GI50 (HCC 2998) was > 100 µM (inactive), the GI50 (HCT-116) was 45.8 µM (inactive) and the GI50 (HCT-15) was 65.5 µM. For the same compound, the GI50 (HOP-62) was > 100 µM (inactive), the GI50 (HT-29) was > 100 µM (inactive) and the GI50 (IGROV-1) was > 100 µM (inactive). The GI50 (K562) was 52 µM (inactive), the GI50 (KM12) was > 100 µM (inactive) and the GI50 (LOX IMVI) was 29.4 µM (inactive). For the same compound, the GI50 (M14) was > 100 µM (inactive), the GI50 (MCF7) was 61.8 µM (inactive) and the GI50 (MDA-MB-231) was > 100 µM (inactive). The GI50 (MDA-MB-435) was > 100 µM (inactive), the GI50 (MDA-N) was 71.1 µM (inactive) and the GI50 (MOLT-4) was 3.23 µM (inactive). The GI50 (NCI-H23) was 39.3 µM (inactive), the GI50 (NCI-H460) was > 100 µM (inactive) and the GI50 (NCI-H522) was 38.9 µM (inactive). The GI50 (NCI/ADR-RES) was > 100 µM (inactive), the GI50 (OVCAR-3) was > 100 µM (inactive) and the GI50 (OVCAR-4) was 67.5 µM (inactive). The GI50 (OVCAR-5) was > 100 µM (inactive), the GI50 (OVCAR-8) was > 100 µM (inactive) and the GI50 (PC-3) was > 100 µM (inactive). For the same compound, the GI50 (RPMI-8226) was 23.9 µM (inactive), the GI50 (RXF 393) was 68.5 µM (inactive) and the GI50 (SF-268) was > 100 µM (inactive). For the same compound, the GI50 (SF-295) was > 100 µM (inactive), the GI50 (SF-539) was > 100 µM (inactive) and the GI50 (SK-MEL-28) was > 100 µM (inactive). For the same compound, the GI50 (SK-MEL-2) was > 100 µM (inactive), the GI50 (SK-MEL-5) was 57.3 µM (inactive) and the GI50 (SK-OV-3) was > 100 µM (inactive). For the same compound, the GI50 (SN12C) was > 100 µM (inactive), the GI50 (SNB-19) was > 100 µM (inactive) and the GI50 (SNB-75) was > 100 µM (inactive). The GI50 (SR) was 25.2 µM (inactive), the GI50 (SW-620) was > 100 µM (inactive) and the GI50 (T47D) was 24.6 µM (inactive). The GI50 (TK-10) was > 100 µM (inactive), the GI50 (U-251) was > 100 µM (inactive) and the GI50 (UACC-257) was 40 µM (inactive). For the same compound, the GI50 (UACC-62) was 65.8 µM (inactive) and the GI50 (UO-31) was > 100 µM (inactive).

For `CC(C)(C)OC(=O)[C@@H]1ON2O[C@H](OC3CCCC3(c3ccccc3)c3ccccc3)C[C@H]3OC(=O)[C@@H]1[C@H]32` (stereo partly specified), the GI50 (786-0) was 50.1 µM (inactive), the GI50 (A549) was 83.2 µM (inactive) and the GI50 (ACHN) was > 100 µM (inactive). For the same compound, the GI50 (BT-549) was 66.7 µM (inactive), the GI50 (CAKI-1) was 53.5 µM (inactive) and the GI50 (CCRF-CEM) was > 100 µM (inactive). The GI50 (COLO 205) was 37.3 µM (inactive), the GI50 (DU-145) was 81.8 µM (inactive) and the GI50 (EKVX) was 73.5 µM (inactive). For the same compound, the GI50 (HCT-116) was 32 µM (inactive), the GI50 (HCT-15) was 31.8 µM and the GI50 (HOP-62) was 61.1 µM (inactive). The GI50 (HT-29) was 38.8 µM (inactive), the GI50 (IGROV-1) was 38.7 µM (inactive) and the GI50 (K562) was 36.4 µM (inactive). The GI50 (KM12) was 36.1 µM (inactive), the GI50 (LOX IMVI) was 31.4 µM (inactive) and the GI50 (M14) was 40.6 µM (inactive). For the same compound, the GI50 (MCF7) was 70 µM (inactive), the GI50 (MDA-MB-231) was > 100 µM (inactive) and the GI50 (MDA-MB-435) was 57.9 µM (inactive). The GI50 (MDA-N) was 61.7 µM (inactive), the GI50 (MOLT-4) was > 10 µM (inactive) and the GI50 (NCI-H226) was 36.9 µM (inactive). For the same compound, the GI50 (NCI-H23) was 46.5 µM (inactive), the GI50 (NCI-H460) was 54.3 µM (inactive) and the GI50 (NCI-H522) was 32.2 µM (inactive). For the same compound, the GI50 (NCI/ADR-RES) was 33.9 µM (inactive), the GI50 (OVCAR-3) was 16.1 µM (inactive) and the GI50 (OVCAR-4) was 14.9 µM (inactive). The GI50 (OVCAR-5) was > 100 µM (inactive), the GI50 (PC-3) was 26.8 µM (inactive) and the GI50 (RXF 393) was 25.7 µM (inactive). For the same compound, the GI50 (SF-268) was 34.4 µM (inactive), the GI50 (SF-295) was > 100 µM (inactive) and the GI50 (SF-539) was > 100 µM (inactive). The GI50 (SK-MEL-28) was 95.1 µM (inactive), the GI50 (SK-MEL-2) was 14.8 µM (inactive) and the GI50 (SK-MEL-5) was 41.6 µM (inactive). For the same compound, the GI50 (SK-OV-3) was > 100 µM (inactive), the GI50 (SN12C) was 58.5 µM (inactive) and the GI50 (SNB-19) was > 100 µM (inactive). The GI50 (SNB-75) was 25.8 µM (inactive), the GI50 (SR) was > 100 µM (inactive) and the GI50 (SW-620) was 85.7 µM (inactive). For the same compound, the GI50 (T47D) was 54 µM (inactive), the GI50 (TK-10) was > 100 µM (inactive) and the GI50 (U-251) was > 100 µM (inactive). For the same compound, the GI50 (UACC-257) was 71.3 µM (inactive), the GI50 (UACC-62) was 98.9 µM (inactive) and the GI50 (UO-31) was 71.9 µM (inactive).

`C=C=C(C)C(=O)N(C(C)C)C(C)C` was tested, and the GI50 (786-0) was > 100 µM (inactive), the GI50 (A498) was > 100 µM (inactive) and the GI50 (A549) was > 100 µM (inactive). The GI50 (ACHN) was > 100 µM (inactive), the GI50 (BT-549) was > 100 µM (inactive) and the GI50 (CCRF-CEM) was > 100 µM (inactive). For the same compound, the GI50 (COLO 205) was > 100 µM (inactive), the GI50 (DU-145) was > 100 µM (inactive) and the GI50 (EKVX) was > 100 µM (inactive). For the same compound, the GI50 (HCC 2998) was > 100 µM (inactive), the GI50 (HCT-116) was > 100 µM (inactive) and the GI50 (HCT-15) was over 100 µM. For the same compound, the GI50 (HL-60) was > 100 µM (inactive), the GI50 (HOP-62) was > 100 µM (inactive) and the GI50 (HOP-92) was > 100 µM (inactive). For the same compound, the GI50 (HT-29) was > 100 µM (inactive), the GI50 (IGROV-1) was > 100 µM (inactive) and the GI50 (K562) was > 100 µM (inactive). For the same compound, the GI50 (LOX IMVI) was > 100 µM (inactive), the GI50 (M14) was > 100 µM (inactive) and the GI50 (MCF7) was > 100 µM (inactive). The GI50 (MDA-MB-231) was > 100 µM (inactive), the GI50 (MDA-MB-435) was > 100 µM (inactive) and the GI50 (MDA-N) was > 100 µM (inactive). The GI50 (MOLT-4) was > 100 µM (inactive), the GI50 (Malme-3M) was > 100 µM (inactive) and the GI50 (NCI-H226) was > 100 µM (inactive). For the same compound, the GI50 (NCI-H23) was > 100 µM (inactive), the GI50 (NCI-H460) was > 100 µM (inactive) and the GI50 (NCI/ADR-RES) was > 100 µM (inactive). For the same compound, the GI50 (OVCAR-3) was > 100 µM (inactive), the GI50 (OVCAR-4) was > 100 µM (inactive) and the GI50 (OVCAR-5) was > 100 µM (inactive). For the same compound, the GI50 (OVCAR-8) was > 100 µM (inactive), the GI50 (PC-3) was > 100 µM (inactive) and the GI50 (RPMI-8226) was > 100 µM (inactive). The GI50 (SF-268) was > 100 µM (inactive), the GI50 (SF-295) was > 100 µM (inactive) and the GI50 (SK-MEL-28) was > 100 µM (inactive). The GI50 (SK-MEL-5) was > 100 µM (inactive), the GI50 (SK-OV-3) was > 100 µM (inactive) and the GI50 (SN12C) was > 100 µM (inactive). The GI50 (SNB-19) was > 100 µM (inactive), the GI50 (SNB-75) was > 100 µM (inactive) and the GI50 (SR) was > 100 µM (inactive). The GI50 (SW-620) was > 100 µM (inactive), the GI50 (T47D) was > 100 µM (inactive) and the GI50 (TK-10) was > 100 µM (inactive). For the same compound, the GI50 (U-251) was > 100 µM (inactive), the GI50 (UACC-257) was > 100 µM (inactive) and the GI50 (UACC-62) was > 100 µM (inactive). For the same compound, the GI50 (UO-31) was > 100 µM (inactive).
